Measured values from patent US11325904B2, “Tropinol esters and related compounds to promote normal processing of APP” (BUCK INSTITUTE FOR RESEARCH ON AGING, priority 2011, dated 2022).

Tested on: ectodomain of APP695 (MBP-eAPP230-624, eAPP230-624, TRX-eAPP575-624)
Assay: Surface plasmon resonance (Biacore T100) binding to APP ectodomain fragments
Experimental: We used surface plasmon resonance to assess binding of compound 14 to the APP ectodomain (eAPP) fragments was done using a Biacore T100. Biotinylated TRX-eAPP575-624 and other eAPP fragments were immobilized onto strepavidin-coated sensor CM5 chip.
Surface plasmon resonance data was obtained with a Biacore T100 for 0-50 μM compound 14 flowed at 1 μl per min in 1% DMSO, 20 mM sodium phosphate, 125 mM sodium chloride pH 7.4 over a CM5 chip cross-linked with proteins containing fragments of the ectodomain of APP695. The three proteins were MBP-eAPP230-624—a fusion protein containing maltose binding protein and residues 230-624 of the ectodomain of APP (90-kDa), eAPP230-624—a protein that contains only residues 230-624 (45-kDa), and TRX-eAPP575-624—a fusion protein containing thioredoxin and residues 575-624 of the ectodomain (20-kDa). The proteins were produced as described in Libeu et al., (2011) J. Alzheimer's Dis., 25(3): 547-566. […] FIG. 11 compares the normalized response for the all three proteins. Comparison of the normalized curves between the proteins was done with PRISM (GraphPad Inc).

Cc1nnc(C(=O)O[C@H]2C[C@H]3CC[C@@H](C2)N3C)o1 [Compound 14]
binding to the ectodomain of APP (0-50 μM compound, 1% DMSO, 20 mM sodium phosphate, 125 mM sodium chloride pH 7.4, CM5 chip): has affinity for APP and can directly bind to the ectodomain of APP | normalized response curves compared between the eAPP fragments (MBP-eAPP230-624 vs eAPP230-624 vs TRX-eAPP575-624, comparison with PRISM): not significantly different
